Measured values from ChEMBL document CHEMBL1932919, “Dirlotapide as a model substrate to refine structure-based drug design strategies on CYP3A4-catalyzed metabolism” (Bioorg Med Chem Lett, 2012).

Tested on: Liver microsomes
Assay: Drug metabolism in human liver microsomes at 20 mM
Type: ADME, Microsome
Conditions: 20000 µM; call rule not given here

- Drug metabolism: Active
Compound: CN(Cc1ccccc1)C(=O)[C@@H](NC(=O)c1cc2cc(NC(=O)c3ccccc3-c3ccc(C(F)(F)F)cc3)ccc2n1C)c1ccccc1 [DIRLOTAPIDE]
